These are literature values, as cited in US20220273646A1, “PHARMACEUTICAL COMPOSITION OF TEMOZOLOMIDE” (INTAS PHARMACEUTICALS LTD., priority 2019, published 2022).

The conditions of series [1]: solution from powder for intravenous infusion.
For series [2] the following is noted: extemporaneously prepared oral suspensions from capsules, 4° C.

Where two headings read alike, the source gives them in different places.

In the case of `Cn1nnc2c(C(N)=O)ncn2c1=O` [Temozolomide, 4-methyl-5-oxo-2,3,4,6,8-pentazabicyclo[4.3.0] nona-2,7,9-triene-9-carboxamide], the temozolomide remained intact entry is reported as “more than 90%” in series [1] (1.25 mg/mL, 13 weeks at 5° C.) and “more than 90%” in series [1] (2.5 mg/mL, 9 days at room temperature). Besides, the “time found chemically stable” value in series [2] is given as “at least 60 days”.
